Experimental findings from ChEMBL document CHEMBL1201862, “PubChem BioAssay data set” (2004) are described below.

Test [1] addresses Beta-lactamase (Salmonella choleraesuis (strain SC-B67), UniProt Q5J463). The test is described as follows: Epi-absorbance-based counterscreen for selective VIM-2 inhibitors: dose response biochemical high throughput screening assay to identify inhibitors of TEM-1 serine-beta-lactamase. (A counterscreen serves to expose hits that act by an unwanted route or on another target.)

Test [2] addresses T1, Beta-lactamase (Pseudomonas aeruginosa, UniProt Q79MP6). The test is described as follows: […] counterscreen for selective VIM-2 inhibitors: dose response biochemical high throughput screening assay to identify inhibitors of IMP-1 metallo-beta-lactamase.
For test [3], the target named is T1, Beta-lactamase. The test is described as follows: IMP-1 metallo-beta-lactamase inhibitors, dose response, selectivity assay for VIM-2 inhibitor project, biochemical, epi-absorbance (AID 1920).
Test [4] has as its target T2, Sentrin-specific protease 8 (Homo sapiens, UniProt Q96LD8).
T2 sequence (Q96LD8 whole entry): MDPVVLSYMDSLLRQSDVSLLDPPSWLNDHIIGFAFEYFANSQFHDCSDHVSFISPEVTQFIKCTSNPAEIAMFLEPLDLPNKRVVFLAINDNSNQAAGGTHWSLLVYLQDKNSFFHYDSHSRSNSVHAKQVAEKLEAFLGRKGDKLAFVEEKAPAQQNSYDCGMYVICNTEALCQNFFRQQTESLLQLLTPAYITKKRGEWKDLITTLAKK
It counts as functional.

A further test concerns the target T3, Caspase-3 (Homo sapiens, UniProt P42574).
T3 sequence (P42574 whole entry): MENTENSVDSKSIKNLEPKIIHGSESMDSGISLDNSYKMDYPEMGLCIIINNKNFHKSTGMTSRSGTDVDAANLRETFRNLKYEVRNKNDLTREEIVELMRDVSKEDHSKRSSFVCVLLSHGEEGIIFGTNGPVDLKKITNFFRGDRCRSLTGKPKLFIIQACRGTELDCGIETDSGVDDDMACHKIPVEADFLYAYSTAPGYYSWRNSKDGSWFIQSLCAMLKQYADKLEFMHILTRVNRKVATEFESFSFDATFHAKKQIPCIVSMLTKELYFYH
The test is described as follows: Dose-response confirmation of uHTS inhibitor hits of Sentrin-Specific Protease 8 in a Caspase-3 Fluorescence assay. It counts as functional.

The target in test [5] is T2, Sentrin-specific protease 8. It counts as functional. This is another data set of the same source.
The nature of test [6]: microbe, parasite or virus in culture. It counts as functional. The settings on record: Mycobacterium tuberculosis.
Test [7] has as its target Matrix metalloproteinase-14 (Homo sapiens, UniProt P50281). The test is described as follows: Dose Response confirmation of uHTS hits for a small molecule inhibitors of MT1-MMP activation in a fluorescence assay set 1. It counts as functional.
For another test, the target named is Protein Wnt-3a (Mus musculus, UniProt P27467). The test is described as follows: Wnt3a-driven reporter signaling inhibition, dose response, selectivity assay for Gli-SUFU antagonist project, Wnt-LIGHT cells, luminescence (AID 651570).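 Further: Wnt-LIGHT reporter cells stimulated with conditioned medium from Wnt3a-producing cells.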 The settings on record: read-out: IC50_Mean. It counts as functional.
Test [8] can be described thus: HepG2 cell cytotoxicity, dose response, cytotoxicity control, ATP luminescence, cherry-pick, activator set 2 (AID 1053143). It counts as functional, cell-based.
Test [9] can be described thus: ADAM10 inhibitors, peptide cleavage, dose response, biochemical, QFRET (AID 743254).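 Further: ADAM10 enzyme with the DM2 quenched FRET peptide as substrate; EDANS fluorescence gain as the protease cuts the substrate; inhibitor potency against ADAM10 proteolytic activity.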
In test [10] the target is T4, Disintegrin and metalloproteinase domain-containing protein 17 (Homo sapiens, UniProt P78536). Briefly: exosite inhibitors of ADAM17, dose response, biochemical (AID 743260).
T4 sequence (P78536 whole entry, the tested form may be a part): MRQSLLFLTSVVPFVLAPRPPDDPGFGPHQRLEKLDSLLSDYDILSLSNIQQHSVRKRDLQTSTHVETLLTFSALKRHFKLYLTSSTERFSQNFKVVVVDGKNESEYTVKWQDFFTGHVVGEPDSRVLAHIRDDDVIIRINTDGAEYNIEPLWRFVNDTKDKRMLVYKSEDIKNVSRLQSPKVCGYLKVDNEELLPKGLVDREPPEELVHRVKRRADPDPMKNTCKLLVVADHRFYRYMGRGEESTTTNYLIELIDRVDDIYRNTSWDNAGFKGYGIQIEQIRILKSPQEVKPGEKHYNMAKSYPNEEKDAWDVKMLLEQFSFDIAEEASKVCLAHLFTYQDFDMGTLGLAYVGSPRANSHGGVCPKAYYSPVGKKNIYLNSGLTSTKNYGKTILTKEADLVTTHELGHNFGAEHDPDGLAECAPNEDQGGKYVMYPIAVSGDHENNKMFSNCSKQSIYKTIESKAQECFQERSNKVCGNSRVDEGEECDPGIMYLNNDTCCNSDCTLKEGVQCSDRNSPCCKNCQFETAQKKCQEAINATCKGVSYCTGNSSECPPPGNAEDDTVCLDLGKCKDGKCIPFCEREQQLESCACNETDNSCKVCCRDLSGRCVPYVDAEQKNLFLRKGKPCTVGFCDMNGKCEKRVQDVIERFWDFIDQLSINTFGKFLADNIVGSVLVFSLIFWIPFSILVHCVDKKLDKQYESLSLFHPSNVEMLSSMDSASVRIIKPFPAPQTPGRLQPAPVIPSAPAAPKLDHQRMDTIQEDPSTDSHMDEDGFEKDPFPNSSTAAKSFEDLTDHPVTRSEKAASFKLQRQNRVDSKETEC
Test [11] deals with T4, Disintegrin and metalloproteinase domain-containing protein 17. The test is described as follows: ADAM17 protease inhibitors, dose response, counter-screen for ADAM10 exosite inhibitor project, biochemical, quenched FRET substrate (AID 743253).
The nature of test [12]: cytotoxicity in HEK-293T cells, dose response, cytotoxicity control for TCR NF-kB inhibitor project, luminescence, T-cell screen hits (AID 489026).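 Further: cells exposed to compound about 14 hours before the viability readout.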 It counts as functional, cell-based.
In a further test the test system is A549. Briefly: A549 cell toxicity, dose response, cytotoxicity control, plate reader, cherry-pick samples (AID 687028). The settings on record: Homo sapiens. It counts as functional, cell-based.
Test [13] can be described thus: HEK293T cytotoxicity, dose response, cytotoxicity control for miR-122 modulator project, cell-based, activator set, cherry-pick (AID 720690).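 Further: HEK293T human cells scored for general mammalian cytotoxicity.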 It counts as functional.
The nature of test [14]: miR-122 activators in hepatoma reporter cells, dose response, cell-based, Huh7 psiCHECK-miR122, Renilla luciferase, cherry-picked (AID 651956).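 Further: huh7 hepatoma cells stably carrying a psiCHECK-2 miR-122 sensor plasmid; renilla luciferase signal reporting endogenous miR-122 activity after 48 h compound exposure.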 It counts as functional.
The next test has as its target Paired box protein Pax-8 (Homo sapiens, UniProt Q06710). The test is described as follows: inhibitors of PAX8-driven TPO luciferase reporter, dose response, RMG-I cells, cherry-pick (AID 687027).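 Further: luciferase reporter driven by Pax8 target thyroperoxidase promoter measured by SteadyGlo luminescence.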 It counts as functional, cell-based. (In general: Reporter assays use an easily measured gene product as a stand-in for the process of interest.)
Test [15] is described as follows: cytotoxicity in OVCAR8 ovarian cancer cells, dose response, PAX8 project, cell-based, plate reader, dry powder samples (AID 743197). It counts as functional. The settings on record: OVCAR-8.
Test [16] concerns the target Scavenger receptor class B member 1 (Mus musculus, UniProt Q61009). The test is described as follows: inhibitors of SR-BI-mediated HDL uptake, dose response, cell-based, ldlA[mSR-BI] CHO, DiI fluorescence, dry powder, set 10 (AID 624029). It counts as functional.
Test [17] can be described thus: inhibitors of HIV Env-driven cell fusion, dose response, cherry-pick (AID 652057). It counts as functional, cell-based.
The test system of another test is HEK293. The test is described as follows: HEK293T cell cytotoxicity, dose response, cytotoxicity control, ATP luminescence, cherry-pick samples (AID 687005).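 Further: cells exposed to compound for 48 hours.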 It counts as functional, cell-based. The settings on record: Homo sapiens.
Test [18] in a line: HEK293 Cytotoxicity Assay Measured in Cell-Based System Using Plate Reader - 7071-01_Inhibitor_Dose_CherryPick_Activity_Set2. It counts as functional.
Another test deals with HepG2. The test is described as follows: HepG2 cell cytotoxicity, dose response, cytotoxicity control, cherry-picks, set 2 (AID 687002). It counts as functional, cell-based. The settings on record: Homo sapiens.
Test [19] in a line: inhibitors of clade B AD8 Env fusion, dose response, cell-based, cherry-pick (AID 652062).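 Further: luciferase signal from cell-cell fusion driven by HIV-1 clade B AD8 Env; potency is for inhibitors of fusion seen as a drop in luminescence.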 It counts as functional.
The next test relates to HeLa. The test is described as follows: HeLa cell cytotoxicity, dose response, cytotoxicity control, ATP luminescence, cherry-pick samples (AID 687004). It counts as functional, cell-based. The settings on record: Homo sapiens.
The target of test [20] is Metabotropic glutamate receptor 3 (Rattus norvegicus, UniProt P31422). Briefly: mGlu3 NAM potency via calcium readout, dose response, mGlu3 NAM project, TREx293 cells, Galpha15, calcium flux (AID 651840). It counts as functional. (Calcium flux is commonly read through the fluorescence of an indicator in the cells.)
Sequence of Metabotropic glutamate receptor 3 (P31422 whole entry): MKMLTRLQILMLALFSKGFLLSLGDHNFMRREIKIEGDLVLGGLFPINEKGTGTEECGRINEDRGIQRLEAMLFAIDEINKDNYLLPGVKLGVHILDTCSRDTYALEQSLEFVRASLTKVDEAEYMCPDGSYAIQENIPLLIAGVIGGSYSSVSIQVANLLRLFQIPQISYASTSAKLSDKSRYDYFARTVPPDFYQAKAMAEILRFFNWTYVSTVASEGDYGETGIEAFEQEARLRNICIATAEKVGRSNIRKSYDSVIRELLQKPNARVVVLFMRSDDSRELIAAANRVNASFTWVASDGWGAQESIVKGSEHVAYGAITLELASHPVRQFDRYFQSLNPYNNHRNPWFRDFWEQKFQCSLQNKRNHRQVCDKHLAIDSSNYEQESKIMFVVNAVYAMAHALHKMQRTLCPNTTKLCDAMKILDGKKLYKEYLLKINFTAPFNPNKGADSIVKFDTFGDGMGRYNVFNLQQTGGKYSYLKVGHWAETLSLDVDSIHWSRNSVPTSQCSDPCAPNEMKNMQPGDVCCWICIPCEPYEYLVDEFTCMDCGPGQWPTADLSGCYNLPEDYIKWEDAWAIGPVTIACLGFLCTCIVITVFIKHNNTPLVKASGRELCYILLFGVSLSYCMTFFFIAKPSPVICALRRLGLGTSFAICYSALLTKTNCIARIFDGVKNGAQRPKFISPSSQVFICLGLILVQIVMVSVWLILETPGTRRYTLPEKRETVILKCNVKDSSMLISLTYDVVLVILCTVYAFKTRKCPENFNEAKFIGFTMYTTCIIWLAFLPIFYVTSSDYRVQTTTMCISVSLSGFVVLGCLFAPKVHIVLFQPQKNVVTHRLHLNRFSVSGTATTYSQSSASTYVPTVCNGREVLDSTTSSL
The nature of test [21]: HeLa cell cytotoxicity, dose response, cytotoxicity control, 24 h, plate reader, dry powder (AID 686928). It counts as functional, cell-based.
A further test addresses Mu-type opioid receptor (Homo sapiens, UniProt P35372). Briefly: Late-stage results from the probe development effort to identify antagonists of OPRK1: luminescence-based cell-based dose response OPRM1 counterscreen. It counts as functional.
Test [22] deals with Delta-type opioid receptor (Homo sapiens, UniProt P41143). The test is described as follows: Late-stage results from the probe development effort to identify antagonists of OPRK1: fluorescence-based cell-based dose response OPRD1 counterscreen. It counts as functional.
Sequence of Delta-type opioid receptor (P41143 whole entry): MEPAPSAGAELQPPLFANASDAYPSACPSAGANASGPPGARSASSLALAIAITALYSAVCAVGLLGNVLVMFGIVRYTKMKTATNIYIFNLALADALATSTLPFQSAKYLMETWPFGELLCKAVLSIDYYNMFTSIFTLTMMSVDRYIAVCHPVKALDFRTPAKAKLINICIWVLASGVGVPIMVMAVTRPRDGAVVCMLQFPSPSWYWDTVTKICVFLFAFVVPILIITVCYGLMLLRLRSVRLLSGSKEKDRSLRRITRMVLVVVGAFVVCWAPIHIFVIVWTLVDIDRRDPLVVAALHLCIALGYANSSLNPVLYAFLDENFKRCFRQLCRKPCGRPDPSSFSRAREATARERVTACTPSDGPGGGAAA
Test [23] concerns the target Potassium channel subfamily K member 9 (Homo sapiens, UniProt Q9NPC2). Briefly: TASK3 (KCNK9) channel inhibitors, thallium flux, SAR follow-up, selectivity assay for TASK1 inhibitor project, cell-based, FluxOR thallium flux, concentration-response (AID 652211).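 Further: potency is for inhibitors of the channel.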 It counts as functional.
In test [24] the target is Potassium channel subfamily K member 3 (Rattus norvegicus, UniProt O54912). Briefly: SAR analysis for the identification of selective inhibitors of the two-pore domain potassium channel TASK1(KCNK3):Automated Electrophysiology. It counts as functional.
Sequence of Potassium channel subfamily K member 3 (Rattus norvegicus, UniProt O54912) (O54912 whole entry, the tested form may be a part): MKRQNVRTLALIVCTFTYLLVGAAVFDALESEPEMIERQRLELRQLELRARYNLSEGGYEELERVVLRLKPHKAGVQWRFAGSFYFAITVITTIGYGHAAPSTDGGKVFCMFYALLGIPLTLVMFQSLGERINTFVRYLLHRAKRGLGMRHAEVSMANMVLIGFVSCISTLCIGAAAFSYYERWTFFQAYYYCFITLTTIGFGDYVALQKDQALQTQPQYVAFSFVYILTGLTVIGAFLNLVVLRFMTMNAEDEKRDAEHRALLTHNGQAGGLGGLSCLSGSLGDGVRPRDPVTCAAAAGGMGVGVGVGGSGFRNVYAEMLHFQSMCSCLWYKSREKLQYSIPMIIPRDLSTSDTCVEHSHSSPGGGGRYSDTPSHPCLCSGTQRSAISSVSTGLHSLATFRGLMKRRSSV
Test [25] addresses Potassium channel subfamily K member 3 (Homo sapiens, UniProt O14649). The test is described as follows: TASK1 (KCNK3) potassium channel inhibitors, SAR follow-up, CHO cells, FluxOR thallium flux (AID 652212). It counts as functional.
Test [26] is described as follows: T. cruzi growth inhibition in host cells, dose response, cell-based, plate reader, dry powder, set 2 (AID 652275). It counts as functional.
Test [27] can be described thus: A Cell-Based Confirmatory Screen for Compounds that Inhibit VEEV, TC-83 (7). It counts as functional.
Test [28] is described as follows: Counterscreen for […] of the human trace amine associated receptor 1 (TAAR1): Fluorescence-based cell-based high throughput dose response assay to identify nonselective Ga16 agonists. It counts as functional.
Test [29] deals with T5, Trace amine-associated receptor 1 (Homo sapiens, UniProt Q96RJ0).
T5 sequence (Q96RJ0 whole entry): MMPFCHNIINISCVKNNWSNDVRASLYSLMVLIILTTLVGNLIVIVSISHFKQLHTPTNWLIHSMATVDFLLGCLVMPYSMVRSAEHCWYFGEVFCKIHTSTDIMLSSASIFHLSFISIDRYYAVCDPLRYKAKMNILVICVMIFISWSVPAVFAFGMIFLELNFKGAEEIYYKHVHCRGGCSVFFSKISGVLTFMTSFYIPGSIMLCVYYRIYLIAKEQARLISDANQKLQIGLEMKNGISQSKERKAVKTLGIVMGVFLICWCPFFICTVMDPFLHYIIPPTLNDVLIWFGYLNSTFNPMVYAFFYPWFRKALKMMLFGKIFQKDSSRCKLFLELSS
Briefly: Fluorescence-based cell-based high throughput dose response assay to identify antagonists of the human trace amine associated receptor 1 (TAAR1). It counts as functional.

For test [30], the target named is T5, Trace amine-associated receptor 1. The test is described as follows: Counterscreen for antagonists of the human trace amine associated receptor 1 (hTAAR1): Fluorescence-based cell-based high throughput dose response assay to identify TAAR1 Agonists. It counts as functional.
Test [31] can be described thus: Counterscreen for antagonists of the human trace amine associated receptor 1 (hTAAR1): Fluorescence-based cell-based high throughput dose response assay to identify nonselective Ga16 antagonists. It counts as functional.

Calls of active or inactive are those of the source.

T1 sequence (Q79MP6 whole entry): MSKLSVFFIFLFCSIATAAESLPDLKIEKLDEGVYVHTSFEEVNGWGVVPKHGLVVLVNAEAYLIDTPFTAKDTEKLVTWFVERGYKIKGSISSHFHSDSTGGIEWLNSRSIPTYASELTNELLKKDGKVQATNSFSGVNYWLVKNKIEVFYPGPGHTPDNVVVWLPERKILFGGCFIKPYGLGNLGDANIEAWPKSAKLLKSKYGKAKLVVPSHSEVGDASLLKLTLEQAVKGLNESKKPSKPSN
Sequence of Potassium channel subfamily K member 9 (Q9NPC2 whole entry, the tested form may be a part): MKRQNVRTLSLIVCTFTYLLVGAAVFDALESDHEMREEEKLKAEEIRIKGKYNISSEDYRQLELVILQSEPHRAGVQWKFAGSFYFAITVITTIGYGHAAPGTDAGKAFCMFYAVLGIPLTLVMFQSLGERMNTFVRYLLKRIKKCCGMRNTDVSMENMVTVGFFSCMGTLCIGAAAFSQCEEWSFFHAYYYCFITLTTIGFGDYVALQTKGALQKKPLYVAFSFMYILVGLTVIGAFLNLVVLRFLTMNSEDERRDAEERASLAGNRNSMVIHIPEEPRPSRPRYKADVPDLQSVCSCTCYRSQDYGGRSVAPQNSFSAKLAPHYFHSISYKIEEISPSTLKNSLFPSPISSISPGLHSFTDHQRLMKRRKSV
Sequence of Potassium channel subfamily K member 3 (Homo sapiens, UniProt O14649) (O14649 whole entry): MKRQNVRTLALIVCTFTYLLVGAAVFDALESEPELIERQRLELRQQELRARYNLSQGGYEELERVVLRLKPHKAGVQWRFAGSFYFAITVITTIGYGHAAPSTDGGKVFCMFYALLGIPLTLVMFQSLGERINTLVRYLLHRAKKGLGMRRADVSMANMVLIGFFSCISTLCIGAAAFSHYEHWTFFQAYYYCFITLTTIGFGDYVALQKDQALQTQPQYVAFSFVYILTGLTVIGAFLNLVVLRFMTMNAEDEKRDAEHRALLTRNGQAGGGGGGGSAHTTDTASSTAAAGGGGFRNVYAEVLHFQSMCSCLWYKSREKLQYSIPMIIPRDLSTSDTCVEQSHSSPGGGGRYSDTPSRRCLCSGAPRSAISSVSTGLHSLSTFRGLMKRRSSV
Sequence of Paired box protein Pax-8 (Q06710 whole entry): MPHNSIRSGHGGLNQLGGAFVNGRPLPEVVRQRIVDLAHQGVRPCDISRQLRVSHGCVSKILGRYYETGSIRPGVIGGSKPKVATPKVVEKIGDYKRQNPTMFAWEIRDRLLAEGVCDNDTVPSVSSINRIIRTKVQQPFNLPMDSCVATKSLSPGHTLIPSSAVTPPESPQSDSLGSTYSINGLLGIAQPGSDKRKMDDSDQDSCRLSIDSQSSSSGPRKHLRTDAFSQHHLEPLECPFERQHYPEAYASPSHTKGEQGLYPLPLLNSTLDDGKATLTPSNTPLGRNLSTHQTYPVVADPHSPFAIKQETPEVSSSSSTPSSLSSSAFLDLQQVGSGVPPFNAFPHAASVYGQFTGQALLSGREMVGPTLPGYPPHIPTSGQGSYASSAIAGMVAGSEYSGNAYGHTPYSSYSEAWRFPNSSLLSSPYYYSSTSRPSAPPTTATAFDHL
Sequence of Mu-type opioid receptor (P35372 whole entry): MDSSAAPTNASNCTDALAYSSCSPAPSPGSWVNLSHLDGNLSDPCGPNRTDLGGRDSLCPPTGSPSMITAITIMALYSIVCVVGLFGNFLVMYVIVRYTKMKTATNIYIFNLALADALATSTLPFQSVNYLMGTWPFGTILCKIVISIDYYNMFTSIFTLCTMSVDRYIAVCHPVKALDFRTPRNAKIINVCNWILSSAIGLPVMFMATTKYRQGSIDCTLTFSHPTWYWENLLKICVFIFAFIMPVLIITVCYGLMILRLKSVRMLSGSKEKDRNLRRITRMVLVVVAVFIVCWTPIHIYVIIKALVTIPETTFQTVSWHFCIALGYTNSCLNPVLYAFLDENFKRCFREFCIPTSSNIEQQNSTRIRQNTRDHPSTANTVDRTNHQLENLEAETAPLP
Sequence of Scavenger receptor class B member 1 (Q61009 whole entry, the tested form may be a part): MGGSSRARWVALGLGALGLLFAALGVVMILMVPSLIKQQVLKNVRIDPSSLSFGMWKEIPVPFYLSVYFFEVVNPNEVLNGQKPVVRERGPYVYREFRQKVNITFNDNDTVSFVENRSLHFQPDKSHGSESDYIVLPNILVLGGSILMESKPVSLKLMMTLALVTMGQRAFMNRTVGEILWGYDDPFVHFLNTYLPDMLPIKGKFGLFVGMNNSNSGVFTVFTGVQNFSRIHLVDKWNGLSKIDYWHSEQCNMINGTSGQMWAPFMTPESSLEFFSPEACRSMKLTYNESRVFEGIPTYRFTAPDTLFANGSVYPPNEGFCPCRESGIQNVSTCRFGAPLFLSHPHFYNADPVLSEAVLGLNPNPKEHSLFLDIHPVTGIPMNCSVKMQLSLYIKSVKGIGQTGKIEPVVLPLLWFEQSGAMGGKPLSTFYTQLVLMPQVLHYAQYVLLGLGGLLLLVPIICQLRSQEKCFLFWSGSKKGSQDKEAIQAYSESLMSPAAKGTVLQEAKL

For the compound `O=C(c1ccco1)N1N=C(c2ccc(Cl)cc2)CC1c1ccco1` (stereo unspecified), the IC50 on Beta-lactamase [1], at Beta-lactamase [2] and at Beta-lactamase [3] was > 59.6 µM (inactive) in each case.
As to `O=C(Cn1nc(Cc2ccncc2)c2ccccc2c1=O)N1CCc2ccccc2C1`, the IC50 was 3.48 µM (active) in test [4], 13.3 µM (active) at Caspase-3 and 6.46 µM (active) in test [5].
Regarding `COc1ccccc1C(=O)NC(=S)/C=C1/N(C)c2ccccc2C1(C)C`, in test [6], the CC50 was > 40 µM (active). For the same compound, the IC50 is > 80 µM (inactive) in test [7] and 15.2 µM (active) on Protein Wnt-3a.
Regarding `Cc1cc2nn(-c3ccc(Cl)cc3)nc2cc1N`, the AC50 in [8] was 21.4 µM (active).
With `O=C(NCC1CCCO1)C(c1cccs1)N(Cc1ccccc1)C(=O)c1ccc(-c2ccccc2)[nH]1` (stereo unspecified), the IC50 in [9], in test [10] and in test [11] was > 69.5 µM (inactive) in each case.
With `Oc1cc(-c2cccc(F)c2)nc2ccccc12`, the IC50 in test [12] was > 80 µM (inactive). In addition, the AC50 in the test with A549 is 18.8 µM (active).
Regarding `C[C@@H]1CN([C@@H](C)CO)C(=O)Cc2cc(NC(=O)Nc3ccc(C(F)(F)F)cc3)ccc2O[C@H]1CN(C)Cc1ccc(Oc2ccccc2)cc1`, the AC50 in test [13] was 19.9 µM (active); in test [14] it was 19.9 µM (active); at Paired box protein Pax-8, 10.3 µM (active); in test [15], 39.9 µM (active).
`CC(C)NC(=O)Nc1ccc2c(c1)C(=O)N([C@@H](C)CO)C[C@@H](C)[C@H](CN(C)S(=O)(=O)c1ccc(Cl)cc1)O2`: the AC50 in test [16] is 0.154 µM (active).
As for `C[C@H](CO)N1C[C@H](C)[C@H](CN(C)Cc2ccccc2F)Oc2cc(C3=CCCC3)ccc2S1(=O)=O`, the AC50 in test [17] was 22.8 µM (active); with HEK293 it was 18.8 µM (active); in [18] it was 18.8 µM (active); in the test with HepG2 it was 19.4 µM (active); in [19], 24.4 µM (active).
As for `Cc1noc(C)c1NC(=O)Nc1ccc2c(c1)C(=O)N(C)[C@@H]1CC[C@H](CC(=O)N[C@H]3CCN(Cc4ccccc4)C3)O[C@@H]1CO2`, the AC50 is 29.7 µM (active) with HEK293, > 47 µM (inactive) with HeLa and 29.7 µM (active) in test [18].
On to `COc1ccc(C#Cc2ccc(C(=O)N3CCCC(O)(Cc4ccccc4)C3)cc2)cc1` (stereo unspecified), for which the IC50 in test [20] is 8.87 µM (active).
As to `O=C(Nc1nnc(-c2ccc3c(c2)OCCO3)o1)C(F)(F)c1ccccc1`, the AC50 in [21] is > 200 µM (inactive).
For `COC(=O)c1cc(Br)cnc1N1CCC(NC2CCCCC2)C1` (stereo unspecified), the IC50 at Mu-type opioid receptor was 20 µM (inactive); in test [22], > 50 µM (inactive).
Consider `CCOc1ccccc1NC(=O)c1cccc(NC(=O)c2cccc(Cl)c2)c1`, for which the figures for the IC50 in test [23], in test [24] and in test [25] were 1.84 µM (active), 2.86 µM (active) and 0.039 µM (active), respectively.
On to `O=C(CN1CCOCC1)N1CCCCN2[C@@H](CO)[C@H](c3ccc(Br)cc3)[C@@H]2C1`, for which the AC50 in test [26] was 7.96 µM (active).
Take `CN1CCN(C)/C(=N/c2ccc(C#N)cc2C(=O)Nc2ccccc2)C1`: in [27], the IC50 is 0.38 µM (active).
Turning to `Cc1ccc(/C=N/NC(=O)c2ccccc2OCc2cccc(Br)c2)o1`, the EC50 in test [28] and in test [30] was > 29.9 µM (inactive) throughout. In addition, the IC50 in test [29] is 3.69 µM (active); in [31], > 29.9 µM (inactive).

Broadly, the AC50 is the midpoint of the concentration-response curve, whichever way the signal moves. One may read the EC50 as the concentration needed to bring the measured effect to its halfway point.
